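Protocol summary: plate cells (96-well), add compound at 5 concentrations, incubate 48 h, interpolate endpoints linearly. The concentration for 50% growth inhibition is given as GI50. Definition used: TGI = concentration required for complete inhibition of growth.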
How the values were obtained:
Assay in all cases: NCI anticancer screen, dose series, 48 h
[1] = tested on: NCI-H23 lung
[2] = tested on: OVCAR-8 ovarian
[3] = tested on: SF-295 CNS
[4] = tested on: UACC-62 melanoma
[5] = tested on: A498 renal
[6] = tested on: BT-549 breast
[7] = tested on: UACC-257 melanoma
[8] = tested on: SR leukemia
[9] = tested on: RXF 393 renal
[10] = tested on: MALME-3M melanoma

CC(C)=CCC/C(C)=C/[C@H]1OC(=O)CC12C[C@H](O)C=CC2=O (stereo partly specified)
GI50 [1]: 0.308 µM | TGI [1]: 1.04 µM | GI50 [2]: 0.791 µM | GI50 [3]: 1.98 µM | TGI [3]: 4.69 µM | GI50 [4]: 1.34 µM | TGI [4]: 2.68 µM | GI50 [5]: 1.47 µM | TGI [5]: 3.09 µM | GI50 [6]: 0.802 µM | TGI [6]: 3.17 µM | GI50 [7]: 1.2 µM | TGI [7]: 2.82 µM | GI50 [8]: 0.383 µM | TGI [8]: > 100 µM

C[C@H]1CCC/C=C/[C@@H]2C[C@H](O)C[C@H]2[C@H](O)[C@@H](SC2OC(CO)C(O)C(O)C2O)CC(=O)O1 (stereo partly specified)
GI50 [1]: 47.9 µM | TGI [1]: > 100 µM | GI50 [2]: 35 µM | TGI [2]: > 100 µM | GI50 [3]: > 100 µM | TGI [3]: > 100 µM | GI50 [4]: 33.6 µM | TGI [4]: > 100 µM | GI50 [5]: 20.7 µM | TGI [5]: 63.8 µM | GI50 [7]: 44.5 µM | TGI [7]: > 100 µM | GI50 [9]: 20 µM | TGI [9]: 55.8 µM | GI50 [10]: 27.6 µM | TGI [10]: 69.4 µM

Cc1ccc(/C=C2\CN(Cc3cn(CCNc4ccnc5cc(Cl)ccc45)nn3)C/C(=C\c3ccc(C)cc3)C2=O)cc1
GI50 [2]: 2.03 µM | TGI [2]: 4.85 µM | GI50 [3]: 1.99 µM | TGI [3]: 3.73 µM | GI50 [4]: 1.88 µM | TGI [4]: 3.43 µM | GI50 [5]: 0.85 µM | TGI [5]: 2.2 µM | GI50 [6]: 1.89 µM | TGI [6]: 3.35 µM | GI50 [7]: 1.7 µM | TGI [7]: 3.38 µM | GI50 [9]: 1.67 µM | TGI [9]: 3.36 µM | GI50 [10]: 1.7 µM | TGI [10]: 3.47 µM

c1ccc(COc2cccc3cccnc23)cc1
TGI [1]: > 100 µM | TGI [2]: > 100 µM | TGI [3]: > 100 µM | TGI [4]: > 100 µM | TGI [7]: > 100 µM | TGI [9]: > 100 µM | TGI [10]: > 100 µM

O=C1C2=C(c3ccccc31)C(c1ccc(F)cc1)N1C(=O)CCSC1=N2 (stereo unspecified)
TGI [1]: > 100 µM | TGI [2]: > 100 µM | TGI [3]: > 100 µM | TGI [4]: > 100 µM | TGI [5]: > 100 µM | TGI [7]: > 100 µM | TGI [10]: > 100 µM

COC(=O)/C(=N/O)C(C(=O)OC)C(=O)C(=O)Nc1c(Cl)cc(C)cc1S(=O)(=O)O (stereo unspecified)
TGI [1]: > 100 µM | TGI [2]: > 100 µM | TGI [3]: > 100 µM | TGI [4]: > 100 µM | TGI [5]: > 100 µM | TGI [7]: > 100 µM | TGI [9]: > 100 µM | TGI [8]: 42.8 µM | TGI [10]: > 100 µM

N[C@H](C(=O)O)[C@@H](Cl)CC(=O)O
TGI [1]: > 100 µM | TGI [2]: > 100 µM | TGI [3]: > 100 µM | TGI [4]: > 100 µM | TGI [5]: > 100 µM | TGI [7]: > 100 µM | TGI [9]: > 100 µM | TGI [10]: > 100 µM

COC(=O)c1nn(C(=N)c2ccc(Cl)cc2)c2c1CCCCC2
TGI [1]: > 100 µM | TGI [3]: > 100 µM | TGI [4]: > 100 µM | TGI [5]: > 100 µM | TGI [7]: > 100 µM | TGI [9]: > 100 µM | TGI [8]: > 100 µM | TGI [10]: > 100 µM

O=C(Nc1ccccc1C(=O)O)C(=O)C(C(=O)c1ccccc1-c1ccccc1)C1OC(=O)c2ccccc21 (stereo unspecified)
TGI [1]: 40.5 µM | TGI [2]: 37.9 µM | TGI [3]: 53.5 µM | TGI [4]: 35.7 µM | TGI [5]: 35.3 µM | TGI [7]: 37.7 µM | TGI [9]: 27.2 µM | TGI [8]: 71.1 µM | TGI [10]: 28.6 µM

CCOC(=O)NC(=O)c1cn(C2OC(CO)C(O)C2O)c(=O)[nH]c1=O (stereo unspecified)
TGI [2]: > 100 µM | TGI [3]: > 100 µM | TGI [4]: > 100 µM | TGI [5]: > 100 µM | TGI [7]: > 100 µM | TGI [9]: > 100 µM | TGI [8]: > 100 µM | TGI [10]: > 100 µM

[N-]=[N+]=Nc1c(Br)c(=O)[nH]c(=O)n1COCCO
TGI [1]: > 100 µM | TGI [2]: > 100 µM | TGI [3]: > 100 µM | TGI [4]: > 100 µM | TGI [7]: > 100 µM | TGI [9]: > 100 µM | TGI [8]: > 100 µM | TGI [10]: > 100 µM

CN/N=C(\C(=O)Nc1ccc([N+](=O)[O-])cc1[N+](=O)[O-])C1NC(=O)NC1=O (stereo unspecified)
TGI [1]: > 100 µM | TGI [2]: > 100 µM | TGI [3]: > 100 µM | TGI [4]: > 100 µM | TGI [5]: > 100 µM | TGI [7]: > 100 µM | TGI [9]: > 100 µM | TGI [8]: > 100 µM | TGI [10]: > 100 µM

CNC(C)Cc1ccc(O)cc1 (stereo unspecified)
TGI [1]: > 100 µM | TGI [2]: > 100 µM | TGI [3]: > 100 µM | TGI [4]: > 100 µM | TGI [5]: > 100 µM | TGI [7]: > 100 µM | TGI [9]: > 100 µM | TGI [8]: > 100 µM | TGI [10]: > 100 µM

COc1cc(C(=O)C/C(CCC(=O)Nc2ccc(Cl)cc2Cl)=N/Nc2nnc(C)n2N)ccc1O
TGI [1]: > 100 µM | TGI [2]: > 100 µM | TGI [3]: > 100 µM | TGI [4]: > 100 µM | TGI [5]: > 100 µM | TGI [7]: > 100 µM | TGI [9]: > 100 µM | TGI [8]: > 100 µM | TGI [10]: > 100 µM

COc1cc(CC2CC(c3ccc4c(c3)OCO4)OC2=O)cc(OC)c1OC (stereo unspecified)
TGI [1]: > 100 µM | TGI [2]: > 100 µM | TGI [3]: > 100 µM | TGI [4]: > 100 µM | TGI [5]: > 100 µM | TGI [7]: > 100 µM | TGI [9]: > 100 µM | TGI [8]: > 100 µM | TGI [10]: > 100 µM

COc1cc(/C=C\c2cc(OC)c(OC)c(OC)c2)cc(NS(=O)(=O)c2cccc(Cl)c2)c1OC
GI50 [1]: 0.386 µM | TGI [1]: > 100 µM | GI50 [2]: 0.429 µM | TGI [2]: > 100 µM | GI50 [3]: 0.0453 µM | TGI [3]: > 100 µM | GI50 [4]: 0.0568 µM | TGI [4]: > 100 µM | GI50 [5]: 0.0218 µM | TGI [5]: 0.0798 µM | GI50 [6]: 0.0338 µM | TGI [6]: 2.46 µM | GI50 [7]: 20.3 µM | TGI [7]: > 100 µM | GI50 [9]: 0.338 µM | TGI [9]: > 100 µM | GI50 [10]: 20 µM | TGI [10]: > 100 µM

COC(=O)C12C3C4C1C1C2C3C41C(=O)N(C(C)C)C(C)C (stereo unspecified)
TGI [1]: > 100 µM | TGI [2]: > 100 µM | TGI [3]: > 100 µM | TGI [4]: > 100 µM | TGI [5]: > 100 µM | TGI [7]: > 100 µM | TGI [8]: > 100 µM | TGI [10]: > 100 µM

CS(=O)(=O)Nc1cc(-c2ccc3ncnc(Nc4cccc(Cl)c4F)c3c2)cnc1Cl
GI50 [1]: 2.33 µM | TGI [1]: 10.1 µM | GI50 [2]: 4.03 µM | TGI [2]: 58.5 µM | GI50 [3]: 2.47 µM | TGI [3]: 12.5 µM | GI50 [4]: 1.76 µM | TGI [4]: 11.7 µM | GI50 [5]: 1.68 µM | TGI [5]: 4.1 µM | GI50 [6]: 1.84 µM | TGI [6]: 7.65 µM | GI50 [7]: 2.62 µM | TGI [7]: 18 µM | GI50 [9]: 1.67 µM | TGI [9]: 4.93 µM | GI50 [10]: 1.83 µM | TGI [10]: 7.66 µM

Cc1cccc(O)c(=O)c1
TGI [2]: > 100 µM | TGI [3]: > 100 µM | TGI [4]: > 100 µM | TGI [5]: > 100 µM | TGI [7]: > 100 µM | TGI [9]: > 100 µM | TGI [8]: 80.6 µM | TGI [10]: > 100 µM

COC(=O)C1=C(c2cc(OC)c(OC)c(OC)c2)O[C@H](c2ccc3c(c2)OCO3)[C@H]1COC(C)=O
TGI [1]: 57.1 µM | TGI [2]: > 100 µM | TGI [3]: 41 µM | TGI [5]: 48.6 µM | TGI [7]: > 100 µM | TGI [8]: 72.6 µM | TGI [10]: > 100 µM
